This is an account of results in patent US20250032525A1 (priority 2021, published 2025).

Molecules are shown by their SMILES. Where two headings read alike, the source gives them in different places.

The test system of data set [1] is RXF 393. The following applies: RXF 393, NCI-60 database, sulforhodamine B; read-out: Cytotoxic IC50; cited from earlier work.
In data set [2] the test system is OVCAR-3. The following applies: OVCAR-3, NCI-60 database, sulforhodamine B; read-out: Cytotoxic IC50; cited from earlier work.
Data set [3] relates to HCC-2998. The following applies: HCC-2998, NCI-60 database, sulforhodamine B; read-out: Cytotoxic IC50; cited from earlier work.
The test system of a further data set is MES-SA/Dx5 xenografts. Kind of data set: MES-SA/Dx5 xenograft tumors in mice. The format is in vivo, NSG mice. The following applies: multidrug resistant MES-SA/Dx5 tumors; DOX 2 mg/kg iv., LiPyDau 0.5 mg/kg iv. once per week. As to the method: 2×10^6 cells from each cell line in 200 μl serum-free culture media DMEM were inoculated into NOD.Cg-Prkdc^scid Il2rg^tm1Wjl/SzJ (NSG) mice subcutaneously in the left flank and treatment was initiated when tumors reached 200 mm^3. Mice were treated with saline (n=3 per each cell lines). […] The size of the tumors was measured every second day with a digital caliper.

For data set [4], the system named is SK-MEL-28. To be noted: SK-MEL-28, NCI-60 database, sulforhodamine B; read-out: Cytotoxic IC50; cited from earlier work.
Data set [5] has as its system NCI-H226. The following applies: NCI-H226, NCI-60 database, sulforhodamine B; read-out: Cytotoxic IC50; cited from earlier work.
A further data set deals with PC-3. Nature of the data set: In vitro cytotoxicity (PrestoBlue). The following applies: Homo sapiens, PC-3, 72 h; read-out: Cytotoxic IC50. In kind it is cell-based. An excerpt: (§1) Experiments were repeated at least 3 times.
The next data set concerns HOP-62. Nature of the data set: In vitro cytotoxicity (PrestoBlue). To be noted: Homo sapiens, HOP-62, 72 h; read-out: Cytotoxic IC50. The format is cell-based.
Text: as §1

In the next data set the test system is OVCAR-8. Kind of data set: In vitro cytotoxicity (PrestoBlue). The format is cell-based. To be noted: Homo sapiens, OVCAR-8, 72 h; read-out: Cytotoxic IC50.
Text: as §1

A further data set deals with EKVX. Kind of data set: In vitro cytotoxicity (PrestoBlue). To be noted: Homo sapiens, 72 h, read-out: Cytotoxic IC50. The format is cell-based.
Text: as §1

The subject of another data set is CAKI-1. Nature of the data set: In vitro cytotoxicity (PrestoBlue). The format is cell-based. To be noted: Homo sapiens, CAKI-1, 72 h; read-out: Cytotoxic IC50.
Text: as §1

In the next data set the test system is DU-145. Nature of the data set: In vitro cytotoxicity (PrestoBlue). In kind it is cell-based. The following applies: Homo sapiens, DU-145, 72 h; read-out: Cytotoxic IC50.
Text: as §1

The subject of another data set is CCRF-CEM. Kind of data set: In vitro cytotoxicity (PrestoBlue). The format is cell-based. To be noted: Homo sapiens, 72 h, read-out: Cytotoxic IC50.
Text: as §1

The next data set concerns OVCAR-5. Kind of data set: In vitro cytotoxicity (PrestoBlue). To be noted: Homo sapiens, OVCAR-5, 72 h; read-out: Cytotoxic IC50. In kind it is cell-based.
Text: as §1

The test system of the next data set is MDA-MB-435. Nature of the data set: In vitro cytotoxicity (PrestoBlue). In kind it is cell-based. To be noted: Homo sapiens, MDA-MB-435, 72 h; read-out: Cytotoxic IC50.
Text: as §1

For data set [6], the system named is OVCAR-3. Kind of data set: In vitro cytotoxicity (PrestoBlue). The format is cell-based. To be noted: Homo sapiens, OVCAR-3, 72 h; read-out: Cytotoxic IC50.
Text: as §1

The test system of the next data set is HCT-116. Nature of the data set: In vitro cytotoxicity (PrestoBlue). The format is cell-based. To be noted: Homo sapiens, HCT-116, 72 h; read-out: Cytotoxic IC50.
Text: as §1

The subject of a further data set is HL-60(TB). Kind of data set: In vitro cytotoxicity (PrestoBlue). In kind it is cell-based. To be noted: Homo sapiens, 72 h, read-out: Cytotoxic IC50.
Text: as §1

Another data set deals with KM12. Kind of data set: In vitro cytotoxicity (PrestoBlue). The format is cell-based. The following applies: Homo sapiens, KM12, 72 h; read-out: Cytotoxic IC50.
Text: as §1

For data set [7], the system named is SK-MEL-28. Kind of data set: In vitro cytotoxicity (PrestoBlue). The format is cell-based. The following applies: Homo sapiens, SK-MEL-28, 72 h; read-out: Cytotoxic IC50.
Text: as §1

Data set [8] has as its system RXF 393. Kind of data set: In vitro cytotoxicity (PrestoBlue). The format is cell-based. To be noted: Homo sapiens, RXF 393, 72 h; read-out: Cytotoxic IC50.
Text: as §1

Another data set relates to NCI-H522. Kind of data set: In vitro cytotoxicity (PrestoBlue). In kind it is cell-based. The following applies: Homo sapiens, NCI-H522, 72 h; read-out: Cytotoxic IC50.
Text: as §1

A further data set deals with MALME-3M. Nature of the data set: In vitro cytotoxicity (PrestoBlue). The format is cell-based. To be noted: Homo sapiens, 72 h, read-out: Cytotoxic IC50.
Text: as §1

For a further data set, the system named is Bx-PC-3. Nature of the data set: In vitro cytotoxicity (PrestoBlue). In kind it is cell-based. To be noted: Homo sapiens, BXPC-3; Bx-PC-3, 72 h; read-out: Cytotoxic IC50.
Text: as §1

For a further data set, the system named is COLO 205. Nature of the data set: In vitro cytotoxicity (PrestoBlue). The format is cell-based. The following applies: Homo sapiens, COLO 205, 72 h; read-out: Cytotoxic IC50.
Text: as §1

The next data set has as its system SW-620. Nature of the data set: In vitro cytotoxicity (PrestoBlue). In kind it is cell-based. To be noted: Homo sapiens, SW-620, 72 h; read-out: Cytotoxic IC50.
Text: as §1

Another data set relates to UO-31. Kind of data set: In vitro cytotoxicity (PrestoBlue). In kind it is cell-based. To be noted: Homo sapiens, UO-31, 72 h; read-out: Cytotoxic IC50.
Text: as §1

In another data set the test system is A498. Kind of data set: In vitro cytotoxicity (PrestoBlue). In kind it is cell-based. To be noted: Homo sapiens, A498, 72 h; read-out: Cytotoxic IC50.
Text: as §1

Data set [9] deals with NCI-H226. Kind of data set: In vitro cytotoxicity (PrestoBlue). The format is cell-based. The following applies: Homo sapiens, NCI-H226, 72 h; read-out: Cytotoxic IC50.
Text: as §1

For the next data set, the system named is SK-MEL-2. Nature of the data set: In vitro cytotoxicity (PrestoBlue). The format is cell-based. The following applies: Homo sapiens, SK-MEL-2, 72 h; read-out: Cytotoxic IC50.
Text: as §1

The subject of data set [10] is HCC-2998. Nature of the data set: In vitro cytotoxicity (PrestoBlue). The format is cell-based. The following applies: Homo sapiens; HCC-2998, 72 h; read-out: Cytotoxic IC50.
Text: as §1

A further data set relates to NCI/ADR-RES. Nature of the data set: In vitro cytotoxicity (PrestoBlue). To be noted: Homo sapiens, 72 h, read-out: Cytotoxic IC50. In kind it is cell-based.
Text: as §1

In another data set the test system is PANC-1. Nature of the data set: In vitro cytotoxicity (PrestoBlue). The format is cell-based. To be noted: Homo sapiens, PANC-1, 72 h; read-out: Cytotoxic IC50.
Text: as §1

With `COc1cccc2c1C(=O)c1c(O)c3c(c(O)c1C2=O)C[C@@](O)(C(=O)CO)C[C@@H]3O[C@H]1C[C@H](N)[C@H](O)[C@H](C)O1` [DOX, doxorubicin], the IC50 in the data set with RXF 393 [1] was 160 nM; in the data set with OVCAR-3 [2], 335 nM; in the data set on HCC-2998 [3], 181 nM; with SK-MEL-28 [4], 242 nM; with NCI-H226 [5], 52.4 nM. The “Response / overall survival” value with MES-SA/Dx5 xenografts was “largely ineffective”.
As to `COc1cccc2c1C(=O)c1c(O)c3c(c(O)c1C2=O)C[C@@](O)(C(C)=O)C[C@@H]3O[C@H]1C[C@H]2[C@H](OC3CCCN32)[C@H](C)O1` (stereo partly drawn) [PyDau, 2-deamino-2-pyrrolino-daunorubicin], the IC50 in the data set on PC-3 was determined as 2.54 nM; in the data set with HOP-62, 4.16 nM; in the data set on OVCAR-8, 1.19 nM; in the data set on EKVX, 3.67 nM; in the data set with CAKI-1, 1.4 nM; in the data set with DU-145, 1.31 nM. For the same compound, the IC50 in the data set on CCRF-CEM came to 0.23 nM; in the data set with OVCAR-5, 1.93 nM; in the data set on MDA-MB-435 it was 1.86 nM; in the data set with OVCAR-3 [6], 1.22 nM; with HCT-116, 3 nM; in the data set on HL-60(TB), 0.9 nM. The IC50 was 1.42 nM in the data set with KM12; 6.87 nM with SK-MEL-28 [7]; 4.66 nM with RXF 393 [8]; 0.94 nM with NCI-H522; 1.84 nM with MALME-3M; 4.68 nM with Bx-PC-3. In addition, the IC50 in the data set on COLO 205 was found to be 2.38 nM; in the data set on SW-620, 2.78 nM; with UO-31 it was 1.43 nM; in the data set with A498, 13.3 nM; in the data set with NCI-H226 [9], 4.44 nM; in the data set on SK-MEL-2, 3.55 nM. The figures for the 50% inhibitory concentration (IC50) with HCC-2998 [10], in the data set with NCI/ADR-RES and in the data set on PANC-1 were 8.19 nM, 1.38 nM and 1.77 nM, respectively.

One may read the IC50 as the concentration at which inhibition is half-maximal.
